Structures can show the parent of a compound that is named as a salt.
Molecular target: recombinant human AMCase (Homo sapiens, UniProt Q9BZP6)
Assay: Human AMCase Activity Assay
Type: biochemical
Conditions: recombinant hAMCase, 4-methylumbelliferyl chitobioside substrate, citrate buffer pH 5.2, 37° C., 60 minutes; read-out: Activity (IC50 value key)
Summary of the method: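 Recombinant human enzyme with fluorogenic 4-methylumbelliferyl β-D-N,N′-diacetylchitobioside substrate in citrate buffer, pH 5.2, 60 min at 37 °C in the dark with shaking. Read-out is 4MU fluorescence at 460 nm.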

recombinant human AMCase, sequence (Q9BZP6 22-476): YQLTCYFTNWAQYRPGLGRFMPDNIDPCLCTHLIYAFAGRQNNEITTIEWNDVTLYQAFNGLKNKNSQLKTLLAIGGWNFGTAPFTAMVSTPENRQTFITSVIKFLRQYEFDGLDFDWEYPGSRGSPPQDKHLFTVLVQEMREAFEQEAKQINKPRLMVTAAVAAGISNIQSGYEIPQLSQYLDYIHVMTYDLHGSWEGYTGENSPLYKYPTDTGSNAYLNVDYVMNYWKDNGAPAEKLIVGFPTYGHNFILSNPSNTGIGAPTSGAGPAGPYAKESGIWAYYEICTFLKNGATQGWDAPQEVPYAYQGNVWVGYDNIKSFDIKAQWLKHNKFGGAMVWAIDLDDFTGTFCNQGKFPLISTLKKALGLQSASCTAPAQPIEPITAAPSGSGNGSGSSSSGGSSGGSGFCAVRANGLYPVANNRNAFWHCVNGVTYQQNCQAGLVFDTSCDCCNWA

| IC50 [µM] | SMILES |
| --- | --- |
| < 0.1 | CN(CCc1ccc(Br)cc1)C1CCN(c2nc(N)n[nH]2)CC1CCCO (stereo not drawn) [Example 246, 3-(1-(3-amino-1H-1,2,4-triazol-5-yl)-4-((4-bromophenethyl)(methyl)amino)piperidin-3-yl)propan-1-ol] |
| > 100 | Nc1n[nH]c(N2CCN(C(=O)COc3ccc(Cl)c([N+](=O)[O-])c3)CC2)n1 [Example 74, 1-(4-(3-amino-1H-1,2,4-triazol-5-yl)piperazin-1-yl)-2-(4-chloro-3-nitrophenoxy)ethanone] |
| 0.1 to 1 | CCC(Cc1ccc(Cl)cc1)N(CC)C1CCN(c2nc(N)n[nH]2)CC1 (stereo not drawn) [Example 232, 1-(3-amino-1H-1,2,4-triazol-5-yl)-N-(1-(4-chlorophenyl)butan-2-yl)-N-ethylpiperidin-4-amine dihydrochloride] |
| < 0.1 | Nc1n[nH]c(N2CCC(N(CCc3ccc(Br)cc3)Cc3ccccc3)CC2)n1 [Example 146, 1-(3-amino-1H-1,2,4-triazol-5-yl)-N-benzyl-N-(4-bromophenethyl)piperidin-4-amine] |
| > 100 | CCc1ccccc1OC(C)C(=O)N1CCN(c2nc(N)n[nH]2)CC1 (stereo not drawn) [Example 33, 1-(4-(3-amino-1H-1,2,4-triazol-5-yl)piperazin-1-yl)-2-(2-ethylphenoxy)propan-1-one] |
| > 100 | Nc1n[nH]c(N2CCN(C(=O)[C@@H](N)Cc3ccc(Cl)cc3Cl)CC2)n1 [Example 75-1, (S)-2-amino-1-(4-(3-amino-1H-1,2,4-triazol-5-yl)piperazin-1-yl)-3-(2,4-dichlorophenyl)propan-1-one dihydrochloride] |
| > 100 | CC(=O)NC(CC(=O)N1CCN(c2nc(N)n[nH]2)CC1)c1cccc(F)c1 (stereo not drawn) [Example 222, N-(3-(4-(3-amino-1H-1,2,4-triazol-5-yl)piperazin-1-yl)-1-(3-fluorophenyl)-3-oxopropyl)acetamide] |
| > 100 | CCC(Oc1ccc(Cl)cc1)C(=O)N1CCN(c2nc(N)n[nH]2)CC1 (stereo not drawn) [Example 8, 1-(4-(3-amino-1H-1,2,4-triazol-5-yl)piperazin-1-yl)-2-(4-chlorophenoxy)-butan-1-one] |
| < 0.1 | Cc1ccccc1CN(CCc1ccc(Cl)cc1)C1CCN(c2nc(N)n[nH]2)CC1 [Example 125, 1-(3-amino-1H-1,2,4-triazol-5-yl)-N-(4-chlorophenethyl)-N-(2-methylbenzyl)piperidin-4-amine] |
| 0.1 to 1 | CN(C1CCN(c2nc(N)n[nH]2)CC1)[C@H](CO)Cc1ccc(Cl)cc1 [Example 153, (S)-2-((1-(3-amino-1H-1,2,4-triazol-5-yl)piperidin-4-yl)(methyl)amino)-3-(4-chlorophenyl)propan-1-ol] |
| > 100 | Nc1n[nH]c(N2CCC(C(=O)NCc3ccccc3Cl)CC2)n1 [Example 198, 1-(3-amino-1H-1,2,4-triazol-5-yl)-N-(2-chlorobenzyl)piperidine-4-carboxamide] |
| > 100 | Nc1n[nH]c(N2CCC(NC(=O)Nc3ccc(Cl)cc3)CC2)n1 [Example 67, 1-(1-(3-amino-1H-1,2,4-triazol-5-yl)piperidin-4-yl)-3-(4-chlorophenyl)urea] |
